{"source": "ChEMBL document CHEMBL5584358", "about": "“Fungal Coculture of Herpotrichia sp. and Trametes versicolor Induces Production of Diverse Metabolites with Anti-Parkinson's Neuroprotective Activity” (J Nat Prod, 2024)", "key": {"PC-12 [1]": {"system": "PC-12", "assay": "Neuroprotective activity against MPP+-induced rat PC12 cell death assessed as downregulation of Adora1 gene expression at 1 to 10 uM preincubated for 1 hr followed by MPP+ addition and measured after 24 hrs by RNA sequencing analysis relative to control", "assay_type": "functional", "settings": "dose 1-10 µM; time 25 hrs"}, "PC-12 [2]": {"system": "PC-12", "assay": "Neuroprotective activity against MPP+-induced rat PC12 cell death assessed as upregulation of Rps27a gene expression at 1 to 10 uM preincubated for 1 hr followed by MPP+ addition and measured after 24 hrs by RNA sequencing analysis relative to control", "assay_type": "functional", "settings": "dose 1-10 µM; time 25 hrs"}, "PC-12 [3]": {"system": "PC-12", "assay": "Neuroprotective activity against MPP+-induced rat PC12 cell death assessed as upregulation of Ets1 gene expression at 1 to 10 uM preincubated for 1 hr followed by MPP+ addition and measured after 24 hrs by RNA sequencing analysis relative to control", "assay_type": "functional", "settings": "dose 1-10 µM; time 25 hrs"}, "PC-12 [4]": {"system": "PC-12", "assay": "Neuroprotective activity against MPP+-induced rat PC12 cell death assessed as upregulation of Cryab gene expression at 1 to 10 uM preincubated for 1 hr followed by MPP+ addition and measured after 24 hrs by RNA sequencing analysis relative to control", "assay_type": "functional", "settings": "dose 1-10 µM; time 25 hrs"}, "PC-12 [5]": {"system": "PC-12", "assay": "Neuroprotective activity against MPP+-induced rat PC12 cell death assessed as downregulation of F8 gene expression at 1 to 10 uM preincubated for 1 hr followed by MPP+ addition and measured after 24 hrs by RNA sequencing analysis relative to control", "assay_type": "functional", "settings": "dose 1-10 µM; time 25 hrs"}, "PC-12 [6]": {"system": "PC-12", "assay": "Neuroprotective activity against MPP+-induced rat PC12 cell death assessed as downregulation of Unc13d gene expression at 1 to 10 uM preincubated for 1 hr followed by MPP+ addition and measured after 24 hrs by RNA sequencing analysis relative to control", "assay_type": "functional", "settings": "dose 1-10 µM; time 25 hrs"}, "PC-12 [7]": {"system": "PC-12", "assay": "Neuroprotective activity against MPP+-induced rat PC12 cell death assessed as upregulation of Stat6 gene expression at 1 to 10 uM preincubated for 1 hr followed by MPP+ addition and measured after 24 hrs by RNA sequencing analysis relative to control", "assay_type": "functional", "settings": "dose 1-10 µM; time 25 hrs"}, "PC-12 [8]": {"system": "PC-12", "assay": "Neuroprotective activity against MPP+-induced rat PC12 cell death assessed as downregulation of Tnfrsf10b gene expression at 1 to 10 uM preincubated for 1 hr followed by MPP+ addition and measured after 24 hrs by RNA sequencing analysis relative to control", "assay_type": "functional", "settings": "dose 1-10 µM; time 25 hrs"}, "PC-12 [9]": {"system": "PC-12", "assay": "Neuroprotective activity against MPP+-induced rat PC12 cell death assessed as downregulation of Cntf gene expression at 1 to 10 uM preincubated for 1 hr followed by MPP+ addition and measured after 24 hrs by RNA sequencing analysis relative to control", "assay_type": "functional", "settings": "dose 1-10 µM; time 25 hrs"}, "PC-12 [10]": {"system": "PC-12", "assay": "Neuroprotective activity against MPP+-induced rat PC12 cell death assessed as downregulation of Prorp gene expression at 1 to 10 uM preincubated for 1 hr followed by MPP+ addition and measured after 24 hrs by RNA sequencing analysis relative to control", "assay_type": "functional", "settings": "dose 1-10 µM; time 25 hrs"}, "PC-12 [11]": {"system": "PC-12", "assay": "Neuroprotective activity against MPP+-induced rat PC12 cell death assessed as downregulation of Ugt1a3 gene expression at 1 to 10 uM preincubated for 1 hr followed by MPP+ addition and measured after 24 hrs by RNA sequencing analysis relative to control", "assay_type": "functional", "settings": "dose 1-10 µM; time 25 hrs"}, "PC-12 [12]": {"system": "PC-12", "assay": "Cytotoxicity against rat PC12 cells assessed as effect on cell viability at 20 uM measured after 24 hrs by CCK-8 assay", "assay_type": "toxicity, cell-based", "settings": "pc-12, 24 h"}, "PC-12 [13]": {"system": "PC-12", "assay": "Neuroprotective activity against MPP+-induced rat PC12 cell death assessed as upregulation of Rph3a gene expression at 1 to 10 uM preincubated for 1 hr followed by MPP+ addition and measured after 24 hrs by RNA sequencing analysis relative to control", "assay_type": "functional", "settings": "dose 1-10 µM; time 25 hrs"}, "PC-12 [14]": {"system": "PC-12", "assay": "Neuroprotective activity against MPP+-induced rat PC12 cell death assessed as cell viability at 20 uM preincubated for 1 hr followed by MPP+ addition and measured after 24 hrs by CCK-8 assay (reference value: 57%)", "assay_type": "functional", "settings": "time 25 hrs, read-out: Activity"}, "PC-12 [15]": {"system": "PC-12", "assay": "Neuroprotective activity against MPP+-induced rat PC12 cell death assessed as downregulation of Nlrp1a gene expression at 1 to 10 uM preincubated for 1 hr followed by MPP+ addition and measured after 24 hrs by RNA sequencing analysis relative to control", "assay_type": "functional", "settings": "dose 1-10 µM; time 25 hrs"}, "PC-12 [16]": {"system": "PC-12", "assay": "Neuroprotective activity against MPP+-induced rat PC12 cell death assessed as upregulation of Faslg gene expression at 1 to 10 uM preincubated for 1 hr followed by MPP+ addition and measured after 24 hrs by RNA sequencing analysis relative to control", "assay_type": "functional", "settings": "dose 1-10 µM; time 25 hrs"}, "PC-12 [17]": {"system": "PC-12", "assay": "Neuroprotective activity against MPP+-induced rat PC12 cell death assessed as upregulation of Dars2 gene expression at 1 to 10 uM preincubated for 1 hr followed by MPP+ addition and measured after 24 hrs by RNA sequencing analysis relative to control", "assay_type": "functional", "settings": "dose 1-10 µM; time 25 hrs"}, "PC-12 [18]": {"system": "PC-12", "assay": "Neuroprotective activity against MPP+-induced rat PC12 cell death assessed as downregulation of Ikbkg gene expression at 1 to 10 uM preincubated for 1 hr followed by MPP+ addition and measured after 24 hrs by RNA sequencing analysis relative to control", "assay_type": "functional", "settings": "dose 1-10 µM; time 25 hrs"}, "PC-12 [19]": {"system": "PC-12", "assay": "Neuroprotective activity against MPP+-induced rat PC12 cell death assessed as downregulation of Cdk6 gene expression at 1 to 10 uM preincubated for 1 hr followed by MPP+ addition and measured after 24 hrs by RNA sequencing analysis relative to control", "assay_type": "functional", "settings": "dose 1-10 µM; time 25 hrs"}, "PC-12 [20]": {"system": "PC-12", "assay": "Neuroprotective activity against MPP+-induced rat PC12 cell death assessed as downregulation of Nr3c2 gene expression at 1 to 10 uM preincubated for 1 hr followed by MPP+ addition and measured after 24 hrs by RNA sequencing analysis relative to control", "assay_type": "functional", "settings": "dose 1-10 µM; time 25 hrs"}, "PC-12 [21]": {"system": "PC-12", "assay": "Neuroprotective activity against MPP+-induced rat PC12 cell death assessed as downregulation of Dmpk gene expression at 1 to 10 uM preincubated for 1 hr followed by MPP+ addition and measured after 24 hrs by RNA sequencing analysis relative to control", "assay_type": "functional", "settings": "dose 1-10 µM; time 25 hrs"}, "PC-12 [22]": {"system": "PC-12", "assay": "Neuroprotective activity against MPP+-induced rat PC12 cell death assessed as downregulation of Tnfaip8L2 gene expression at 1 to 10 uM preincubated for 1 hr followed by MPP+ addition and measured after 24 hrs by RNA sequencing analysis relative to control", "assay_type": "functional", "settings": "dose 1-10 µM; time 25 hrs"}, "PC-12 [23]": {"system": "PC-12", "assay": "Neuroprotective activity against MPP+-induced rat PC12 cell death assessed as downregulation of Ren gene expression at 1 to 10 uM preincubated for 1 hr followed by MPP+ addition and measured after 24 hrs by RNA sequencing analysis relative to control", "assay_type": "functional", "settings": "dose 1-10 µM; time 25 hrs"}, "PC-12 [24]": {"system": "PC-12", "assay": "Neuroprotective activity against MPP+-induced rat PC12 cell death assessed as upregulation of Lck gene expression at 1 to 10 uM preincubated for 1 hr followed by MPP+ addition and measured after 24 hrs by RNA sequencing analysis relative to control", "assay_type": "functional", "settings": "dose 1-10 µM; time 25 hrs"}, "PC-12 [25]": {"system": "PC-12", "assay": "Neuroprotective activity against MPP+-induced rat PC12 cell death assessed as upregulation of Cdh1 gene expression at 1 to 10 uM preincubated for 1 hr followed by MPP+ addition and measured after 24 hrs by RNA sequencing analysis relative to control", "assay_type": "functional", "settings": "dose 1-10 µM; time 25 hrs"}, "PC-12 [26]": {"system": "PC-12", "assay": "Neuroprotective activity against MPP+-induced rat PC12 cell death assessed as upregulation of Bach2 gene expression at 1 to 10 uM preincubated for 1 hr followed by MPP+ addition and measured after 24 hrs by RNA sequencing analysis relative to control", "assay_type": "functional", "settings": "dose 1-10 µM; time 25 hrs"}}}
{"smiles": "C=C1CC[C@H]2C(C)(C)[C@@H](O)C[C@@H](O)[C@]2(C)[C@H]1CO", "values": [{"measurement": "log2FC", "setting": "PC-12 [1]", "result": ">0.4"}, {"measurement": "log2FC", "setting": "PC-12 [2]", "result": ">0.4"}, {"measurement": "log2FC", "setting": "PC-12 [3]", "result": ">0.4"}, {"measurement": "log2FC", "setting": "PC-12 [4]", "result": ">0.4"}, {"measurement": "log2FC", "setting": "PC-12 [5]", "result": ">0.4"}, {"measurement": "log2FC", "setting": "PC-12 [6]", "result": ">0.4"}, {"measurement": "log2FC", "setting": "PC-12 [7]", "result": ">0.4"}, {"measurement": "log2FC", "setting": "PC-12 [8]", "result": ">0.4"}, {"measurement": "log2FC", "setting": "PC-12 [9]", "result": ">0.4"}, {"measurement": "log2FC", "setting": "PC-12 [10]", "result": ">0.4"}, {"measurement": "log2FC", "setting": "PC-12 [11]", "result": ">0.4"}, {"measurement": "Activity", "setting": "PC-12 [12]", "result": "Non-Toxic"}, {"measurement": "log2FC", "setting": "PC-12 [13]", "result": ">0.4"}, {"measurement": "viability at 20 µM", "setting": "PC-12 [14]", "result": 71, "unit": "%"}, {"measurement": "log2FC", "setting": "PC-12 [15]", "result": ">0.4"}, {"measurement": "log2FC", "setting": "PC-12 [16]", "result": ">0.4"}, {"measurement": "log2FC", "setting": "PC-12 [17]", "result": ">0.4"}, {"measurement": "log2FC", "setting": "PC-12 [18]", "result": ">0.4"}, {"measurement": "log2FC", "setting": "PC-12 [19]", "result": ">0.4"}, {"measurement": "log2FC", "setting": "PC-12 [20]", "result": ">0.4"}, {"measurement": "log2FC", "setting": "PC-12 [21]", "result": ">0.4"}, {"measurement": "log2FC", "setting": "PC-12 [22]", "result": ">0.4"}, {"measurement": "log2FC", "setting": "PC-12 [23]", "result": ">0.4"}, {"measurement": "log2FC", "setting": "PC-12 [24]", "result": ">0.4"}, {"measurement": "log2FC", "setting": "PC-12 [25]", "result": ">0.4"}, {"measurement": "log2FC", "setting": "PC-12 [26]", "result": ">0.4"}]}
